From US9512120B2, “Microbicidally active imidazopyridine derivatives” (Syngenta Participations AG, priority 2013, dated 2016)

Assays:
[1] = test system: Pyrenophora teres; experiment: Pyrenophora teres / barley / leaf disc preventative (net blotch); assay type: in vivo; conditions: foliar, barley leaf segments cv Hasso, inoculated two days after application, assessed 5-7 days after application, read-out: control of Pyrenophora teres (disease control compared to untreated)
Procedure, shortened: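 Barley cv Hasso leaf segments on agar sprayed with compound at 200 ppm, inoculated with spores two days later. Kept at 20 °C, 65% RH, 12/12 h light; disease control versus untreated scored 5-7 days after application.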

[2] = test system: Thanatephorus cucumeris (Rhizoctonia solani); experiment: Thanatephorus cucumeris (Rhizoctonia solani) / liquid culture (foot rot, damping-off); assay type: cell-based; conditions: PDB, 24° C., 3-4 days after application, read-out: control of Thanatephorus cucumeris (inhibition of growth, photometric)
Procedure, shortened: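 Mycelial fragments in potato dextrose broth exposed to test compounds at 200 ppm (from DMSO solution), incubated at 24° C. Growth inhibition read photometrically 3-4 days after application.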

[3] = test system: Pythium ultimum; experiment: Pythium ultimum / liquid culture (seedling damping off); assay type: cell-based; conditions: Globisporangium ultimum, potato dextrose broth, 24° C., 2-3 days after application, read-out: control of Pythium ultimum (inhibition of growth, photometric)
Protocol: Pythium ultimum/Liquid Culture (Seedling Damping Off) Mycelia fragments and oospores of a newly grown liquid culture of the fungus were directly mixed into nutrient broth (potato dextrose broth). After placing a DMSO solution of test compound into a 96-well format microtiter plate at an application rate of 200 ppm, the nutrient broth containing the fungal mycelia/spore mixture was added. The test plates were incubated at 24° C. and the inhibition of growth was determined photometrically 2-3 days after application.

[4] = test system: Puccinia recondita f. sp. Tritici; experiment: Puccinia recondita f. sp. tritici / wheat / leaf disc preventative (brown rust); assay type: in vivo; conditions: foliar, wheat leaf segments cv Kanzler, inoculated 1 day after application, assessed 7-9 days after application, read-out: control of Puccinia recondita f. sp. Tritici (percent disease control compared to untreated)
Procedure, shortened: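 Leaf segments of wheat cv Kanzler on agar were sprayed with formulated compound at 200 ppm and inoculated with spores 1 day later. Incubation was at 19° C, 75% relative humidity and 12/12 h light/dark. Activity was scored 7-9 days after application as percent disease control versus untreated.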

[5] = test system: Sclerotinia sclerotiorum; experiment: Sclerotinia sclerotiorum liquid culture (cottony rot / white mold); assay type: cell-based; conditions: PDB, 24° C., 3-4 days after application, read-out: control of Sclerotinia sclerotiorum (inhibition of growth, photometric)
Procedure, shortened: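 Mycelia fragments of Sclerotinia sclerotiorum in potato dextrose broth were added to compound in DMSO. Cultures incubated at 24° C; growth inhibition determined photometrically 3-4 days after application.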

[6] = test system: Phaeosphaeria nodorum (Septoria nodorum); experiment: Phaeosphaeria nodorum (Septoria nodorum) / wheat / leaf disc preventative (glume blotch); assay type: in vivo; conditions: Parastagonospora nodorum, foliar, wheat leaf segments cv Kanzler, inoculated 2 days after application, assessed 5-7 days after application, read-out: control of Phaeosphaeria nodorum (percent disease control compared to untreated)
Procedure, shortened: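 Wheat leaf segments (cv Kanzler) on agar sprayed with compound at 200 ppm, inoculated with spores 2 days later. Incubated at 20° C., 75% relative humidity, 12/12 h light/dark; percent disease control versus untreated scored 5-7 days after application.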

[7] = test system: Botryotinia fuckeliana (Botrytis cinerea); experiment: Botryotinia fuckeliana (Botrytis cinerea) / liquid culture (gray mould); assay type: cell-based; conditions: Vogels broth, 24° C., 3-4 days after application, read-out: control of Botryotinia fuckeliana (inhibition of growth, photometric)
Procedure, shortened: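 Botrytis cinerea conidia in Vogels broth were added to test compound applied from DMSO at 200 ppm. Incubation at 24 °C; growth inhibition read photometrically 3-4 days after application.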

[8] = test system: Mycosphaerella graminicola (Septoria tritici); experiment: Mycosphaerella graminicola (Septoria tritici) / liquid culture (Septoria blotch); assay type: cell-based; conditions: Zymoseptoria tritici, PDB, 24° C., 4-5 days after application, read-out: control of Mycosphaerella graminicola (inhibition of growth, photometric)
Procedure, shortened: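 Cryo-stored conidia in potato dextrose broth were added to compound in DMSO at 200 ppm in microtiter plates. Plates were incubated at 24 °C and growth inhibition was measured photometrically 4–5 days after application.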

[9] = test system: Glomerella lagenarium (Colletotrichum lagenarium); experiment: Glomerella lagenarium (Colletotrichum lagenarium) / liquid culture (anthracnose); assay type: cell-based; conditions: Colletotrichum orbiculare, PDB, 24° C., 3-4 days after application, read-out: control of Glomerella lagenarium (inhibition of growth, photometric)
Procedure, shortened: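 Cryopreserved conidia suspended in potato dextrose broth were added to compound in DMSO applied at 200 ppm. Plates incubated at 24° C; growth inhibition read photometrically 3-4 days after application.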

[10] = test system: Monographella nivalis (Microdochium nivale); experiment: Monographella nivalis (Microdochium nivale) / liquid culture (foot rot cereals); assay type: cell-based; conditions: PDB, 24° C., 4-5 days after application, read-out: control of Monographella nivalis (inhibition of growth, photometric)
Procedure, shortened: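 Cryostored conidia in potato dextrose broth were added to test compound dispensed from DMSO at 200 ppm. Plates were kept at 24° C, and growth inhibition was read photometrically 4-5 days after application.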

[11] = test system: Mycosphaerella arachidis (Cercospora arachidicola); experiment: Mycosphaerella arachidis (Cercospora arachidicola) / liquid culture (early leaf spot); assay type: cell-based; conditions: PDB, 24° C., 4-5 days after application, read-out: control of Mycosphaerella arachidis (inhibition of growth, photometric)
Procedure, shortened: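 Conidia suspended in potato dextrose broth and added to test compound from DMSO solution at 200 ppm. Incubated at 24 °C; growth inhibition read photometrically 4-5 days after application.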

[12] = test system: Gaeumannomyces graminis; experiment: Gaeumannomyces graminis / liquid culture (take-all of cereals); assay type: cell-based; conditions: PDB, 24° C., 4-5 days after application, read-out: control of Gaeumannomyces graminis (inhibition of growth, photometric)
Procedure, shortened: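 Mycelial fragments in potato dextrose broth were exposed to compound from DMSO at 200 ppm in microtiter plates. Incubation at 24 °C; growth inhibition read photometrically 4-5 days after application.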

[13] = test system: Blumeria graminis f. Sp. Tritici (Erysiphe graminis f. Sp. Tritici); experiment: Blumeria graminis f. sp. tritici / wheat / leaf disc preventative (powdery mildew on wheat); assay type: in vivo; conditions: foliar, wheat leaf segments cv. Kanzler, inoculated 1 day after application, assessed 6-8 days after application, read-out: control of Blumeria graminis (percent disease control compared to untreated)
Protocol: Blumeria graminis f. Sp. Tritici (Erysiphe graminis f. Sp. Tritici)/Wheat/Leaf Disc Preventative (Powdery Mildew on Wheat):
Wheat leaf segments cv. Kanzler were placed on agar in a 24-well plate and sprayed with the formulated test compound diluted in water at an application rate of 200 ppm. The leaf disks were inoculated by shaking powdery mildew infected plants above the test plates 1 day after application. The inoculated leaf disks were incubated at 20° C. and 60% relative humidity under a light regime of 24 h darkness followed by 12 h/12 h (dark/light) in a climate chamber and the activity of a compound was assessed as percent disease control compared to untreated when an appropriate level of disease damage appears on untreated check leaf segments (6-8 days after application). The following compounds gave at least 80% control of Blumeria graminis at 200 ppm when compared to untreated control leaf disks under the same conditions, which show extensive disease development: 2, 13, 23, 50, 59, 61, 67, 75, 85, 86, 89, 90, 93, 102, 103, 107, 134, 136, 137, 138, 139, 141, 145, 151, 153, 154, 163, 173, 174

[14] = test system: Plasmopara viticola; experiment: Plasmopara viticola / grape / leaf disc preventative; assay type: in vivo; conditions: foliar, grape vine leaf disks, inoculated 1 day after application, assessed 6-8 days after application, read-out: control of Plasmopara viticola (percent disease control compared to untreated)

Row | SMILES | pest or weed control at 200 ppm [1] [%] | inhibition at 20 ppm [2] [%] | inhibition at 20 ppm [3] [%] | pest or weed control at 200 ppm [4] [%] | inhibition at 20 ppm [5] [%] | pest or weed control at 200 ppm [6] [%] | inhibition at 20 ppm [7] [%] | inhibition at 20 ppm [8] [%] | inhibition at 20 ppm [9] [%] | inhibition at 20 ppm [10] [%] | inhibition at 20 ppm [11] [%] | inhibition at 20 ppm [12] [%] | pest or weed control at 200 ppm [13] [%] | pest or weed control at 200 ppm [14] [%] | melting point [°C]
1 | CCn1c(-n2ncnc2N)nc2cncc(-c3ccccc3Cl)c21 [Compound 33, 2-[7-(2-chlorophenyl)-1-ethylimidazo[4,5-c]pyridin-2-yl]-1,2,4-triazol-3-amine] | ≥ 80 | ≥ 80 | ≥ 80 | ≥ 80 | ≥ 80 | ≥ 80 | ≥ 80 | ≥ 80 | ≥ 80 | ≥ 80 | ≥ 80 | – | – | – | –
2 | CCn1c(-n2ncnc2N)nc2cncc(-c3cc(F)ccc3F)c21 [Compound 39, 2-[7-(2,5-difluorophenyl)-1-ethylimidazo[4,5-c]pyridin-2-yl]-1,2,4-triazol-3-amine] | ≥ 80 | ≥ 80 | ≥ 80 | – | ≥ 80 | ≥ 80 | ≥ 80 | ≥ 80 | ≥ 80 | ≥ 80 | ≥ 80 | ≥ 80 | – | – | –
3 | CCn1c(-n2ncnc2N)nc2cncc(-c3ccoc3)c21 [Compound 55, 2-[1-ethyl-7-(furan-3-yl)imidazo[4,5-c]pyridin-2-yl]-1,2,4-triazol-3-amine] | ≥ 80 | ≥ 80 | ≥ 80 | ≥ 80 | – | ≥ 80 | ≥ 80 | ≥ 80 | ≥ 80 | ≥ 80 | ≥ 80 | ≥ 80 | – | – | –
4 | CCCc1cncc2nc(-n3ncnc3N)n(CC)c12 [Compound 73, 2-(1-ethyl-7-propylimidazo[4,5-c]pyridin-2-yl)-1,2,4-triazol-3-amine] | ≥ 80 | ≥ 80 | ≥ 80 | ≥ 80 | ≥ 80 | ≥ 80 | ≥ 80 | ≥ 80 | – | ≥ 80 | ≥ 80 | ≥ 80 | – | – | –
5 | CCn1c(-n2ncnc2N)nc2cncc(C(C)=NOCc3ccccc3F)c21 [Compound 137] | ≥ 80 | ≥ 80 | – | ≥ 80 | ≥ 80 | ≥ 80 | ≥ 80 | ≥ 80 | ≥ 80 | ≥ 80 | – | ≥ 80 | ≥ 80 | ≥ 80 | 159 to 171
6 | CCn1c(-n2ncnc2N)nc2cncc(C(C)=NOCc3ccc(C)cc3)c21 [Compound 139] | ≥ 80 | ≥ 80 | – | ≥ 80 | ≥ 80 | – | ≥ 80 | ≥ 80 | ≥ 80 | ≥ 80 | ≥ 80 | ≥ 80 | ≥ 80 | ≥ 80 | –
7 | CCn1c(-n2ncnc2N)nc2cncc(C(C)=NOCc3ccc(Cl)cc3)c21 [Compound 145] | ≥ 80 | ≥ 80 | – | ≥ 80 | ≥ 80 | ≥ 80 | ≥ 80 | ≥ 80 | ≥ 80 | ≥ 80 | – | – | ≥ 80 | ≥ 80 | –
8 | C=C(Cl)CO/N=C(/C)c1cncc2nc(-n3ncnc3N)n(CC)c12 [Compound 151] | ≥ 80 | ≥ 80 | – | ≥ 80 | ≥ 80 | ≥ 80 | ≥ 80 | ≥ 80 | ≥ 80 | ≥ 80 | – | – | ≥ 80 | ≥ 80 | –
9 | CCn1c(-n2ncnc2N)nc2cncc(/C(C)=N/OC/C=C(\C)Cl)c21 [Compound 154, 2-[7-[(E)-N-[(E)-3-chlorobut-2-enoxy]-C-methyl-carbonimidoyl]-1-ethyl-imidazo[4,5-c]pyridin-2-yl]-1,2,4-triazol-3-amine] | ≥ 80 | ≥ 80 | – | ≥ 80 | ≥ 80 | – | ≥ 80 | ≥ 80 | ≥ 80 | – | – | – | ≥ 80 | ≥ 80 | –
10 | CCn1c(-n2ncnc2N)nc2cncc(C(C)=NOCc3c(F)c(F)c(F)c(F)c3F)c21 [Compound 163] | ≥ 80 | ≥ 80 | – | ≥ 80 | – | – | ≥ 80 | ≥ 80 | ≥ 80 | – | ≥ 80 | – | ≥ 80 | ≥ 80 | –
11 | CCCc1cncc2nc(-n3ncnc3N)n(CCC)c12 [Compound 190, 2-(1,7-dipropylimidazo[4,5-c]pyridin-2-yl)-1,2,4-triazol-3-amine] | ≥ 80 | ≥ 80 | ≥ 80 | ≥ 80 | ≥ 80 | ≥ 80 | ≥ 80 | ≥ 80 | – | ≥ 80 | – | ≥ 80 | – | – | –
